The test system of assay [1] is HCT 116 cells deficient in TIFA protein expression (TIFA KO). Briefly: IL-8 ELISA in TIFA knockout HCT 116 cells. Conditions: TIFA KO HCT 116. The format is cell-based, human. How it is done: (§1) Wild type (WT) or TIFA knockout (TIFA KO) cells were treated with compounds in the presence of digitonin for 20 min, treatment was removed, cells were washed and then cultured in normal medium without the synthetic compounds for 6 hr before IL-8 levels in culture supernatants were measured by ELISA. (A) Cells were treated with water or 10 μg/mL of the indicated compound. Data are means±standard error mean of technical triplicates. (B) Cells were treated with the NOD1 agonist C12-iE-DAP (39.8 μM) or with two different molar concentrations of compounds (30 μM or 150 μM). Two batches of dd-β-HBP and dd-β-HMP synthesized independently of one another were tested (batch #1 and batch #2) to assess consistency of the chemical synthesis. Data are means±standard error mean of two (150 μM treatment) or three (all other treatments) independent experiments. Nod1 agonist: C12-iE-DAP (20 μg/ml, 39.8 μM); JS-12: D-glycero-D-manno-heptose; JS-2: D-glycero-D-manno-heptose 7-phosphate; JS-7:D-glycero-β-D-manno-heptose-phosphate; JS-8: d-glycero-α-d-manno-heptose-phosphate; JS-9: β-d-mannose phosphate; JS-6:d-glycero-β-d-manno heptose 1,7-biphosphate; JS-5: d-glycero-α-d-manno heptose 1,7-biphosphate.
(§2) FIG. 11. Stimulation of human colonic epithelial cells by compounds/products according to the invention. Human colonic epithelial cells (HCT 116) that were either wild type (WT) or deficient in TIFA protein expression (knockout, KO) were stimulated for 20 minutes in permeabilization buffer (5 μg/mL digitonin) in the presence of water or 10 μg/mL, 30 μg/mL, or 50 μg/mL of indicated synthetic compounds according to the invention. Treatment was removed, cells were washed, and cells were incubated for 6 hours in complete media before IL-8 levels in culture supernatants was measured by ELISA. The results are the mean±standard error of the mean of three technical replicates. JS-10: 7-O-(Aminoethyl)-D-glycero-β-D-manno-heptopyranose phosphate; JS-11: 7-O-(Aminoethyl) -D-glycero-D-manno-heptopyranose; JS-12: D-glycero-D-manno-heptose; Js-13: pH-Rhodo -7-O-(aminoethyl)-D-glycero-β-D-manno-heptopyranose phosphate.
(§3) FIG. 13. Stimulation of human colonic epithelial cells by compounds/products according to the invention. Human colonic epithelial cells (HCT 116) that were either wild type (WT) or deficient in TIFA protein expression (knockout, TIFA KO) were stimulated for 20 minutes in permeabilization buffer (5 μg/mL digitonin) in the presence of water, 20 μg/mL of the Nod1 agonist C12-iE-DAP (39.8 μM, which induces inflammation in a TIFA-independent manner) or 30 μM or 150 μM of synthetic compound according to the invention. Treatment was removed, cells were washed, and cells were incubated for 6 hours in complete media before IL-8 levels in culture supernatants were measured by ELISA. The results are the mean±standard error of the mean of two (150 μM treatment) or three (all other treatments) independent experiments. #=none detected, JS-10: 7-O-(Aminoethyl)-d-glycero-β-d-manno-heptopyranose phosphate; JS-14: Biotin-7-O-(aminoethyl)-d-glycero-β-d-manno-heptopyranose phosphate, Nod1 agonist: C12-iE-DAP (20 μg/ml, 39.8 μM).
as §3, with “16.” for “13.”, “of” for “of the mean of two (150 μM treatment) or”, “technical replicates. […]” for “(all other treatments) independent experiments. #=none detected, JS-10: 7-O-(Aminoethyl)-d-glycero-β-d-manno-heptopyranose phosphate; JS-14: Biotin-7-O-(aminoethyl)-d-glycero-β-d-manno-heptopyranose phosphate, Nod1 agonist: C12-iE-DAP (20 μg/ml, 39.8 μM).”

For assay [2], the system named is HEK 293T cells encoding an NF-κB-driven luciferase reporter gene. Briefly: NF-κB-driven luciferase reporter assay in HEK 293T cells. Conditions: digitonin 20 min; for inflammatory NF-κB response (luciferase activity): FIG. 10, WT HEK 293T, 10 μg/mL or 30 μM/150 μM, luciferase after 6 hrs. Format: cell-based, human. How it is done:
(§4) FIGS. 10A-B. Effect of chemically synthesised analogues on human embryonic kidney cells (HEK 293T) encoding an NF-κB-driven luciferase reporter gene. NF-κB luciferase activity was measured in wild type (WT) or TIFA knockout (TIFA KO) cells treated with compounds in the presence of digitonin for 20 min, washed, and then cultured in normal medium without the synthetic compounds for 6 hrs after treatment, before luciferase activity was measured. (A) Cells were treated with 10 μg/mL of the indicated compound. Data are means±standard error mean of technical triplicates. (B) Cells were treated with two different molar concentrations of compound (30 μM or 150 μM). Two batches of DD-β-HBP and DD-β-HMP synthesized independently of one another were tested (batch #1 and batch #2) to assess consistency of the chemical synthesis. Data are means±standard error mean of technical triplicates and are representative of three independent experiments. JS-12: D-glycero-D-manno-heptose; JS-2: D-glycero-D-manno-heptose 7-phosphate; JS-7:D-glycero-β-D-manno-heptose-phosphate; JS-8: D-glycero-α-D-manno-heptose-phosphate; JS-9: β-D-mannose phosphate; JS-6:D-glycero-β-D-manno heptose 1,7-biphosphate; JS-5: D-glycero-α-D-manno heptose 1,7-biphosphate.
FIG. 12. Effects of compounds/products according to the invention on HEK 293T cells encoding an NF-κB-driven luciferase reporter gene. HEK 293T cells were transfected with a plasmid encoding an NF-κB-driven luciferase reporter. After 24 hours, cells were stimulated for 20 minutes in permeabilization buffer (5 μg/mL digitonin) in the presence of water or 10 μg/mL, 30 μg/mL, or 50 μg/mL of indicated synthetic compounds according to the invention. Treatment was removed; cells were washed and incubated for 6 hours incomplete medium. A luciferase assay was then performed. JS-12a control: D-glycero-D-manno heptose. The results are the means±standard error of the mean of three technical replicates. JS-10: 7-O-(Aminoethyl)-D-glycero-β-D-manno-heptopyranose phosphate; JS-11: 7-O-(Aminoethyl)-D-glycero-D-manno-heptopyranose; JS-12: D-glycero-D-manno-heptose; Js-13: pH-Rhodo-7-O-(aminoethyl)-D-glycero-β-D-manno-heptopyranose phosphate.
FIG. 14. Effects of compounds/products according to the invention on HEK 293T cells encoding an NF-κB-driven luciferase reporter gene. HEK 293T cells were transfected with a plasmid encoding an NF-κB-driven luciferase reporter. After 24 hours, cells were stimulated for 20 minutes in permeabilization buffer (5 μg/mL digitonin) in the presence of water, or either 30 μM or 150 μM of indicated synthetic compounds according to the invention. Treatment was removed; cells were washed and incubated for 6 hours in complete medium. A luciferase assay was then performed. […]
In general terms: Reporter assays use an easily measured gene product as a stand-in for the process of interest.

Assay [3] concerns human colonic epithelial cells (HCT 116), wild type. Briefly: IL-8 ELISA in wild type HCT 116 cells after digitonin-permeabilised stimulation. The format is cell-based. The settings on record: WT HCT 116, digitonin 20 min. How it is done:
as §1, §2
FIG. 13. […] Treatment was removed, cells were washed, and cells were incubated for 6 hours in complete media before IL-8 levels in culture supernatants were measured by ELISA. The results are the mean±standard error of the mean of two (150 μM treatment) or three (all other treatments) independent experiments. #=none detected, JS-10: 7-O-(Aminoethyl)-d-glycero-β-d-manno-heptopyranose phosphate; JS-14: Biotin-7-O-(aminoethyl)-d-glycero-β-d-manno-heptopyranose phosphate, Nod1 agonist: C12-iE-DAP (20 μg/ml, 39.8 μM).
FIG. 16. […] Treatment was removed, cells were washed, and cells were incubated for 6 hours in complete media before IL-8 levels in culture supernatants were measured by ELISA. […]
(In general: ELISA stands for enzyme-linked immunosorbent assay.)

Assay [4] has as its system TIFA knockout (TIFA KO) HEK 293T cells encoding an NF-κB-driven luciferase reporter gene. Briefly: NF-κB-driven luciferase reporter assay in TIFA knockout HEK 293T cells. Format: cell-based, human. How it is done: as §4
Assay [5] has as its system human macrophage cells (THP-1). As to the kind of experiment: IL-8 ELISA in THP-1 cells after digitonin-permeabilised stimulation. Format: cell-based. Conditions: FIG. 15, higher (150 μM) concentrations, digitonin 20 min, IL-8 after 6 hours. How it is done:
FIG. 15. Stimulation of human macrophages by compounds/products according to the invention. Human macrophage cells (THP-1) were stimulated for 20 minutes in permeabilization buffer (5 μg/mL digitonin) in the presence of water, 39.8 μM of the Nod1 agonist C12-iE-DAP (which stimulates in a TIFA-independent manner), or either 30 μM or 150 μM of synthetic compound according to the invention. Treatment was removed, cells were washed, and cells were incubated for 6 hours in complete media before the IL-8 levels in culture supernatants were measured by ELISA. The results are the mean and standard error of the mean of three technical replicates. Nod1 agonist: C12-iE-DAP (20 μg/ml, 39.8 μM); JS-7: JS-7:D-glycero-β-D-manno-heptose-phosphate; JS-10: 7-O-(Aminoethyl)-D-glycero-β-D-manno-heptopyranose phosphate; JS-14: Biotin-7-O-(aminoethyl)-D-glycero-β-D-manno-heptopyranose phosphate.

The mark [6] stands for this setting: FIG. 9, 10 μg/mL or 30 μM/150 μM.
[7] abbreviates: FIG. 9, 10 μg/mL or 30 μM/150 μM, IL-8 after 6 hr.
The mark [8] stands for this setting: FIG. 10, TIFA KO HEK 293T, 10 μg/mL or 30 μM/150 μM.
Setting [9] is: FIG. 13, 30 μM or 150 μM (Nod1 agonist 39.8 μM).
Setting [10] is: FIG. 16, 30 μM or 150 μM (Nod1 agonist 39.8 μM).
The mark [11] stands for this setting: FIG. 17, TIFA KO cells, 30 μM or 150 μM.

These results are taken from patent US11795190B2, “D-glycero-B-D-heptose 1-phosphate (HMP) conjugates and use for targeted immune modulation” (NATIONAL RESEARCH COUNCIL OF CANADA, priority 2017, dated 2023).

On to `O=P(O)(O)OC[C@@H](O)[C@H]1O[C@@H](OP(=O)(O)O)[C@@H](O)[C@@H](O)[C@@H]1O` [JS6, D-glycero-β-D-manno heptose 1,7-biphosphate, reference compound], for which the “activity in TIFA KO cells (IL-8), TIFA dependence” value (shortened to “activity … (IL-8), TIFA dependence”) in assay [1] (setting [6]) is “relative absence of activity”. Moreover, the “inflammatory NF-κB response (luciferase activity)” value in assay [2] was “inflammatory NF-κB response”. The “inflammatory response (IL-8 in culture supernatant)” value in assay [3] (setting [7]) was “inflammatory response”. Besides, in assay [4] (setting [8]), the “activity in TIFA KO cells (NF-κB luciferase), TIFA dependence” value is “relative absence of activity”.

On to `O=P(O)(O)O[C@@H]1O[C@H]([C@H](O)CO)[C@@H](O)[C@H](O)[C@@H]1O` [JS7, D-glycero-β-D-manno-heptose-phosphate], for which the “activity … (IL-8), TIFA dependence” value in assay [1] (setting [6]) is recorded as “relative absence of activity”. For the same compound, the “inflammatory NF-κB response (luciferase activity)” value in assay [2] was “inflammatory NF-κB response similar to that apparent with DD-β-HBP (JS6)”. Moreover, the “inflammatory response (IL-8 in culture supernatant)” value in assay [3] (setting [7]) was “inflammatory response similar to that apparent with DD-β-HBP (JS6)”. Moreover, in assay [4] (setting [8]), the “activity in TIFA KO cells (NF-κB luciferase), TIFA dependence” value was “relative absence of activity”.

Consider `O=C(CCCCC1SCC2NC(=O)NC21)NCCOC[C@@H](O)C1O[C@@H](OP(=O)([O-])[O-])C(O)C(O)[C@@H]1O.[Na+].[Na+]` (stereo partly drawn) [JS-14a], for which the “activity … (IL-8), TIFA dependence” value in assay [1] (setting [9]) is reported as “relative absence of activity”. Also, the “inflammatory response (IL-8 in culture supernatant)” value in assay [5] is “stimulate an inflammatory response”. In assay [4] (FIG. 14, TIFA KO cells, 30 μM or 150 μM), the “activity in TIFA KO cells (NF-κB luciferase), TIFA dependence” value was “relative absence of activity”.

As to `O=C(CCCCC1SCC2NC(=O)NC21)NCCOCCOCCOCCOCCC(=O)NCCOC[C@@H](O)C1O[C@@H](OP(=O)(O)O)C(O)C(O)[C@@H]1O` (stereo partly drawn) [JS-24a, Biotin-PEG4-7-O-(aminoethyl)-D-glycero-β-D-manno-heptopyranose phosphate], the “activity … (IL-8), TIFA dependence” value in assay [1] (setting [10]) was “relative absence of activity”. The “activity in TIFA KO cells (NF-κB luciferase), TIFA dependence” value in assay [4] (setting [11]) is given as “relative absence of activity”.

For `CCCCCCCCCCCC(=O)N[C@H](CCC(=O)NC(CCCC(N)C(=O)O)C(=O)O)C(=O)O` (stereo partly drawn) [Nod1 agonist, C12-iE-DAP, reference compound], the “activity … (IL-8), TIFA dependence” value in assay [1] (setting [9]) and in assay [1] (setting [10]) was “not TIFA-dependent” in each case.

On to “Fluorescein-7-O-(aminoethyl)-D-glycero-β-D-manno-heptopyranose phosphate [JS-25a]”, for which the “activity … (IL-8), TIFA dependence” value in assay [1] (setting [10]) is “relative absence of activity”. Further, in assay [4] (setting [11]), the “activity in TIFA KO cells (NF-κB luciferase), TIFA dependence” value is reported as “relative absence of activity”.

With “pH-Rhodo-7-O-(aminoethyl)-D-glycero-β-D-manno-heptopyranose phosphate [JS-13a]”, the “activity … (IL-8), TIFA dependence” value in assay [1] (FIG. 11, 10, 30 or 50 μg/mL) is “relative absence of activity”. The “inflammatory response (NF-κB luciferase)” value in assay [2] (FIG. 12, HEK 293T, 10, 30 or 50 μg/mL, luciferase after 6 hours) is recorded as “strong inflammatory response”. Moreover, the “inflammatory response (IL-8 in culture supernatant)” value in assay [3] (FIG. 11, 10, 30 or 50 μg/mL, IL-8 after 6 hours) is “strong inflammatory response”. The “activity in TIFA KO cells (NF-κB luciferase), TIFA dependence” value in assay [4] (FIG. 12, TIFA KO cells, 10, 30 or 50 μg/mL) is listed as “relative absence of activity”.
